Reference: BindingDB's records for doi:10.1021/jm00034a008 (Ciba-Geigy, 1994)

Legend:
[1] = biological target: Purine nucleoside phosphorylase (Bos taurus) (UniProt P55859); assay: Inhibition of calf spleen PNP (purine nucleoside phosphorylase) in 1 mM phosphate
[2] = biological target: Purine nucleoside phosphorylase (Bos taurus) (UniProt P55859); assay: Inhibition of calf spleen PNP (purine nucleoside phosphorylase) in 50 mM phosphate

Sequence of Purine nucleoside phosphorylase (Bos taurus) (P55859 whole entry, looked up): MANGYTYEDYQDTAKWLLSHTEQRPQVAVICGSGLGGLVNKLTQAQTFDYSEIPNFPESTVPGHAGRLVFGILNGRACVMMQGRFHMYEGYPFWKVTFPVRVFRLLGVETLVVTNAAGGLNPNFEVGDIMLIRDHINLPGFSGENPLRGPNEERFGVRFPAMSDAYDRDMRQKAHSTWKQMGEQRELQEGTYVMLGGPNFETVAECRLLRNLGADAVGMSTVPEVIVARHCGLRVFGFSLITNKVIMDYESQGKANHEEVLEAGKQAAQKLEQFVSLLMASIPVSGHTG

CC(C)(CCS)CCn1cnc2c(=S)[nH]c(N)nc21 [2-Amino-9-(5-mercapto-3,3-dimethyl-pentyl)-1,9-dihydro-purine-6-thione]
IC50 [1]: 50 µM | IC50 [2]: 95 µM

CC(C)(CCn1cnc2c(=O)[nH]c(N)nc21)CCS(N)(=O)=O [5-(2-Amino-6-oxo-1,6-dihydro-purin-9-yl)-3,3-dimethyl-pentane-1-sulfonic acid amide]
IC50 [1]: 100 µM | IC50 [2]: > 300 µM

CC(C)(CCn1cnc2c(=O)[nH]c(N)nc21)CCS(=O)(=O)O [5-(2-Amino-6-oxo-1,6-dihydro-purin-9-yl)-3,3-dimethyl-pentane-1-sulfonic acid]
IC50 [1]: 0.18 µM | IC50 [2]: 9 µM

CC(C)(CCC#N)CCn1cnc2c(=O)[nH]c(N)nc21 [6-(2-Amino-6-oxo-1,6-dihydro-purin-9-yl)-4,4-dimethyl-hexanenitrile]
IC50 [1]: 260 µM | IC50 [2]: > 300 µM

CC(C)(CCC(N)=O)CCn1cnc2c(=O)[nH]c(N)nc21 [6-(2-Amino-6-oxo-1,6-dihydro-purin-9-yl)-4,4-dimethyl-hexanoic acid amide]
IC50 [1]: 200 µM | IC50 [2]: > 300 µM

CC(C)(CCC(=O)O)CCn1cnc2c(=O)[nH]c(N)nc21 [6-(2-Amino-6-oxo-1,6-dihydro-purin-9-yl)-4,4-dimethyl-hexanoic acid]
IC50 [1]: 8 µM | IC50 [2]: 290 µM

CC(C)(CCn1cnc2c(=O)[nH]c(N)nc21)CCP(=O)(O)O [[5-(2-Amino-6-oxo-1,6-dihydro-purin-9-yl)-3,3-dimethyl-pentyl]-phosphonic acid]
IC50 [1]: 0.044 µM | IC50 [2]: 2 µM
